Test results published in patent US20260078130A1, “NAMPT MODULATORS, PREPARATIONS, AND USES THEREOF” (SIRONAX LTD., priority 2022, published 2026).

What was measured:
[1] = test system: endogenous NAMPT in U2OS cells; experiment: Cellular NAD+ modulation assay (NAD/NADH-Glo, U2OS cells); format: cell-based; settings: Homo sapiens, 24 hours incubation, cellular NAD+; for maximal fold induction: read-out: Cellular Emax
Summary of the method: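 NAD/NADH-Glo luminescence quantified NAD+ after acid treatment (60 °C, 15 min) and neutralization of DTAB lysates. Beforehand, U2OS cells seeded 16 h earlier received compound concentration series for 24 h at 37 °C. Values given as half-maximal activation concentration (EC50) and maximal fold change versus DMSO (Emax).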

[2] = molecular target: T1, human enzyme NAMPT (full length) (Homo sapiens, UniProt P43490); experiment: NMN fluorescence biochemical assay (stimulation of NMN synthesis by NAMPT); settings: for EC50: NMN fluorescence assay, purified human NAMPT 100 nM, concentration giving half-maximal activation, read-out: Enzymatic EC50; for Enzymatic Emax: fold change of maximal activation compared to DMSO
T1 construct: human enzyme NAMPT (full length)
Summary of the method: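 Full-length human NAMPT (100 nM) was preincubated 15 min at 37 °C with compound in 50 mM Tris-HCl pH 7.5, 10 mM MgCl2, 2 mM DTT, then reacted 1 h at 37 °C with 50 μM NAM, 100 μM PRPP, 4 mM ATP (stated solution concentrations). NMN was derivatised with acetophenone/KOH then formic acid and read at Ex/Em 382/445 nm; EC50 and Emax (fold over DMSO) reported.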

T1 sequence (P43490 whole entry): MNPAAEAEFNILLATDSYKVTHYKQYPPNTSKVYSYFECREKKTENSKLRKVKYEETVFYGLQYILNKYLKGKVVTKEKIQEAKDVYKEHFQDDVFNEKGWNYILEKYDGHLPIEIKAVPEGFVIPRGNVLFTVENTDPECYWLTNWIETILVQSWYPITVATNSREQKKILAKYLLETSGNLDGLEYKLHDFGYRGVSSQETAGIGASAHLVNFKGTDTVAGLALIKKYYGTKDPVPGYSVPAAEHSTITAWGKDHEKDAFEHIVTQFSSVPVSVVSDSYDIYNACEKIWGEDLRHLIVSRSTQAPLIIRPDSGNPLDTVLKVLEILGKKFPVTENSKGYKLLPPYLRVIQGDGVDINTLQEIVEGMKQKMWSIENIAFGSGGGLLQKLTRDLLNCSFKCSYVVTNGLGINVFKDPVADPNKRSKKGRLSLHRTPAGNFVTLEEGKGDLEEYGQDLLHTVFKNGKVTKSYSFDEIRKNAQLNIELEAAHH

SMILES | EC50 [1] | EC50 [2] | Enzymatic Emax [2] | maximal fold induction [1]
COc1ccc(CN2C(=O)c3ccccc3C2Cc2c(Cl)cnn2C)nc1F (stereo not shown) [Compound 543, 3-((4-chloro-1-methyl-1H-pyrazol-5-yl)methyl)-2-((6-fluoro-5-methoxypyridin-2-yl)methyl)isoindolin-1-one] | 500 to 5000 nM | 500 to 5000 nM | B (3≥B>2) | > 1.5
COc1ccc(CN2C(=O)c3ccccc3C2Cc2c(Cl)cnn2C)cc1Cl (stereo not shown) [Compound 544, 3-((4-chloro-1-methyl-1H-pyrazol-5-yl)methyl)-2-(3-chloro-4-methoxybenzyl)isoindolin-1-one] | 500 to 5000 nM | 500 to 5000 nM | C (2≥C) | 1.2 to 1.5
Cn1nc(F)c(Cl)c1CC1c2ccccc2C(=O)N1CC1CC2(CNC(=O)O2)C1 (stereo not shown) [Compound 547, 2-((1-((4-chloro-3-fluoro-1-methyl-1H-pyrazol-5-yl)methyl)-3-oxoisoindolin-2-yl)methyl)-5-oxa-7-azaspiro[3.4]octan-6-one] | < 500 nM | 500 to 5000 nM | A (A>3) | > 1.5
CN1C[C@]2(C[C@H](CN3C(=O)c4ccccc4[C@@H]3Cc3c(Cl)cnn3C)C2)OC1=O [Compound 551, (2s,4R)-2-(((S)-1-((4-chloro-1-methyl-1H-pyrazol-5-yl)methyl)-3-oxoisoindolin-2-yl)methyl)-7-methyl-5-oxa-7-azaspiro[3.4]octan-6-one] | < 500 nM | 500 to 5000 nM | B (3≥B>2) | > 1.5
Cn1c(=O)oc2cc(CN3C(=O)c4ccccc4C3Cc3c(Br)cccc3C#N)ccc21 (stereo not shown) [Compound 552, 3-bromo-2-((2-((3-methyl-2-oxo-2,3-dihydrobenzo[d]oxazol-6-yl)methyl)-3-oxoisoindolin-1-yl)methyl)benzonitrile] | < 500 nM | < 500 nM | A (A>3) | > 1.5
COc1cnc(CN2C(=O)c3ccccc3C2Cc2c(Cl)cnn2C)cc1F (stereo not shown) [Compound 555, 3-((4-chloro-1-methyl-1H-pyrazol-5-yl)methyl)-2-((4-fluoro-5-methoxypyridin-2-yl)methyl)isoindolin-1-one] | < 500 nM | ≥ 5000 nM | B (3≥B>2) | > 1.5
Cn1ncc(Cl)c1CC1c2ccccc2C(=O)N1Cc1ccc2c(c1)nnn2C (stereo not shown) [Compound 557, 3-((4-chloro-1-methyl-1H-pyrazol-5-yl)methyl)-2-((1-methyl-1H-benzo[d][1,2,3]triazol-5-yl)methyl)isoindolin-1-one] | < 500 nM | 500 to 5000 nM | A (A>3) | > 1.5
Cn1ncc(Cl)c1CC1c2ccccc2C(=O)N1CC1CC(C(N)=O)C1 (stereo not shown) [Compound 562, 3-((1-((4-chloro-1-methyl-1H-pyrazol-5-yl)methyl)-3-oxoisoindolin-2-yl)methyl)cyclobutane-1-carboxamide] | < 500 nM | 500 to 5000 nM | B (3≥B>2) | 1.2 to 1.5
Cn1ncc(Cl)c1CC1c2cc(F)ccc2S(=O)(=O)N1CC1CC2(CNC(=O)O2)C1 (stereo not shown) [Compound 563, 2-((3-((4-chloro-1-methyl-1H-pyrazol-5-yl)methyl)-5-fluoro-1,1-dioxidobenzo[d]isothiazol-2(3H)-yl)methyl)-5-oxa-7-azaspiro[3.4]octan-6-one] | < 500 nM | 500 to 5000 nM | A (A>3) | > 1.5
Cn1ncc(Cl)c1CC1c2ccccc2C(C)(C)N1CC1CC2(CNC(=O)O2)C1 (stereo not shown) [Compound 565, 2-((3-((4-chloro-1-methyl-1H-pyrazol-5-yl)methyl)-1,1-dimethylisoindolin-2-yl)methyl)-5-oxa-7-azaspiro[3.4]octan-6-one] | < 500 nM | < 500 nM | A (A>3) | > 1.5
COc1ccc(CN2C(=O)c3ccccc3C2Cc2c(Cl)c(Cl)nn2C)cc1 (stereo not shown) [Compound 566, 3-((3,4-dichloro-1-methyl-1H-pyrazol-5-yl)methyl)-2-(4-methoxybenzyl)isoindolin-1-one] | < 500 nM | 500 to 5000 nM | A (A>3) | > 1.5
COc1ccc(CN2C(=O)c3ccccc3C2Cc2c(C)ccnc2C#N)cc1 (stereo not shown) [Compound 567, 3-((2-(4-methoxybenzyl)-3-oxoisoindolin-1-yl)methyl)-4-methylpicolinonitrile] | < 500 nM | < 500 nM | B (3≥B>2) | > 1.5

More lines, main results first:

EC50 [1] | EC50 [2] | Enzymatic Emax [2] | SMILES | maximal fold induction [1]
< 500 nM | < 500 nM | B (3≥B>2) | Cn1ncc(Cl)c1CC1c2ccccc2C(=O)N1CC1CC2(CNC(=O)S2)C1 (stereo not shown) [Compound 568, 2-((1-((4-chloro-1-methyl-1H-pyrazol-5-yl)methyl)-3-oxoisoindolin-2-yl)methyl)-5-thia-7-azaspiro[3.4]octan-6-one] | 1.2 to 1.5
5000 to 50000 nM | ≥ 5000 nM | C (2≥C) | Cn1ncc(Cl)c1CC1c2ccccc2C(=O)N1Cc1ccc(Cl)cc1 (stereo not shown) [Compound 573, 3-((4-chloro-1-methyl-1H-pyrazol-5-yl)methyl)-2-(4-chlorobenzyl)isoindolin-1-one] | ≤ 1.2
500 to 5000 nM | 500 to 5000 nM | B (3≥B>2) | COc1ccc(CN2C(=O)c3ccccc3C2Cc2c(Cl)cnn2C)cn1 (stereo not shown) [Compound 574, 3-((4-chloro-1-methyl-1H-pyrazol-5-yl)methyl)-2-((6-methoxypyridin-3-yl)methyl)isoindolin-1-one] | > 1.5
500 to 5000 nM | ≥ 5000 nM | B (3≥B>2) | Cn1ncc(Cl)c1CC1c2ccccc2C(=O)N1Cc1ccc(O)nc1 (stereo not shown) [Compound 578, 3-[(4-chloro-2-methyl-pyrazol-3-yl)methyl]-2-[(6-hydroxy-3-pyridyl)methyl]isoindolin-1-one] | 1.2 to 1.5
500 to 5000 nM | 500 to 5000 nM | A (A>3) | Cn1ncc(Cl)c1CC1c2cc(Cl)cc(F)c2C2(CC2)N1CC1CC2(CNC(=O)O2)C1 (stereo not shown) [Compound 580, 2-((5′-chloro-3′-((4-chloro-1-methyl-1H-pyrazol-5-yl)methyl)-7′-fluorospiro[cyclopropane-1,1′-isoindolin]-2′-yl)methyl)-5-oxa-7-azaspiro[3.4]octan-6-one] | 1.2 to 1.5
500 to 5000 nM | 500 to 5000 nM | A (A>3) | COc1ccc(CN2C(=O)c3c(F)cc(Cl)cc3C2Cc2c(Cl)cnn2C)cc1 (stereo not shown) [Compound 581, 5-chloro-3-((4-chloro-1-methyl-1H-pyrazol-5-yl)methyl)-7-fluoro-2-(4-methoxybenzyl)isoindolin-1-one] | 1.2 to 1.5
5000 to 50000 nM | ≥ 5000 nM | C (2≥C) | Cn1ncc(Cl)c1CC1c2ccccc2C(=O)N1CC1CC1C(N)=O (stereo not shown) [Compound 582, 2-((1-((4-chloro-1-methyl-1H-pyrazol-5-yl)methyl)-3-oxoisoindolin-2-yl)methyl)cyclopropane-1-carboxamide] | 1.2 to 1.5
